According to US20180140578A1, “METHODS AND COMPOSITIONS FOR THE DIAGNOSIS AND SELECTIVE TREATMENT OF CANCER” (Board of Regents of the University of Texas System, priority 2016, published 2018):

Legend:
[1] = tested on: indisulam resistant HCT-116 clones; test: Cell viability assay, indisulam resistant clones; type: cell-based, human
Experimental: The methods for generating a population of barcoded HCT-116 cells were described before (20). […] Clones that appeared after the selection was then expanded and barcode genotyped to identify six clones with unique barcodes. […] Source data for exome sequencing data is available under NCBI SRA accession SRP068238. Bortezomib resistant clones were isolated by selection with 5 nM bortezomib, and MLN4924 resistant clones with 40 nM MLN4924.
12-point dose responses were performed on 96-well assay plates with cell plating (1500-4000 cell per well) on day 1, compound addition on day 2, and survival measurement on day 5. Compounds were diluted in DMSO before adding to the cells. Final DMSO concentration was 0.5%. Cell survival assay was performed using CellTiter-Glo Luminescent Cell Viability Assay kit (Promega) that measures cellular ATP content. Luminescence was recorded by EnVison multimode plate reader (Perkin Elmer). IC50 was determined with GraphPad Prism using baseline correction (by normalizing to DMSO control), the asymmetric (five parameter) equation and least squares fit.

DCAF15 and RBM39Δ150 [2] = target: T1, DCAF15 and RBM39Δ150 (Homo sapiens, UniProt Q14498+Q66K64, P272S); test: Mass spec quantification of indisulam in RBM39 DCAF15 complex; type: binding; conditions: DCAF15 and RBM39Δ150 P272S; 10 μM indisulam
T1 construct: Full-length cDNAs encoding CUL4A, CUL4B, DCAF15, and DDB1 were cloned into pLVX IRES Puro; made in house; host or cells: RBM39Δ150: Sf9 (baculovirus); DCAF15-3xFLAG: anti-FLAG beads from HCT-116 or 293T cells stably expressing it
T1 sequence (Q66K64 whole entry, stated change not applied): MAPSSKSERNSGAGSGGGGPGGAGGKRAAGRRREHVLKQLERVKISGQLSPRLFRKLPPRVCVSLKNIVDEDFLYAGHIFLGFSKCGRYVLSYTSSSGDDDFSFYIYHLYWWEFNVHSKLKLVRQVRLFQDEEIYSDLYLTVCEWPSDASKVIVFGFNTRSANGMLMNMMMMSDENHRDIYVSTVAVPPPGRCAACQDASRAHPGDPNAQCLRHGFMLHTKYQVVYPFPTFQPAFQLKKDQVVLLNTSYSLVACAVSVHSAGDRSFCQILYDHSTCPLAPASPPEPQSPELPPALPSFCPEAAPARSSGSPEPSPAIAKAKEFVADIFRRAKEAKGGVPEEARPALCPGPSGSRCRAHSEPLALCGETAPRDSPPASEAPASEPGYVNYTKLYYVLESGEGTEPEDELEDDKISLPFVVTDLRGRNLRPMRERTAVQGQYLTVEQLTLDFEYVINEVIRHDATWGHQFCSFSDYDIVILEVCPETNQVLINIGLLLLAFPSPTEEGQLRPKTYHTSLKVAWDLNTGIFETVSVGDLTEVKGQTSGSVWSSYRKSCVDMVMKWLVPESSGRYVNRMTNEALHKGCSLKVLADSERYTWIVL
T1 sequence (Q14498 151-530 P272S, stated change not applied): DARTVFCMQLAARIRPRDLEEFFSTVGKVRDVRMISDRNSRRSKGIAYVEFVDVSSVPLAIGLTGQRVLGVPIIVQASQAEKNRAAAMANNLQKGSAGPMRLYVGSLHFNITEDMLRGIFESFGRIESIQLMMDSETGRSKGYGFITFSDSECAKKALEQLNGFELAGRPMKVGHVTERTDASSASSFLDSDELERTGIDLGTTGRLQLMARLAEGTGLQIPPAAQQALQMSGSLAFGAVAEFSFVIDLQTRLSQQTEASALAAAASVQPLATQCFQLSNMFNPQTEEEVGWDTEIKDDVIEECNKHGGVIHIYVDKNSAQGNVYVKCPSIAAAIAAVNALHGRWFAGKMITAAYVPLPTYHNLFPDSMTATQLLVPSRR
T1 sequence (Q16531 2-1140 partner, stated change not applied): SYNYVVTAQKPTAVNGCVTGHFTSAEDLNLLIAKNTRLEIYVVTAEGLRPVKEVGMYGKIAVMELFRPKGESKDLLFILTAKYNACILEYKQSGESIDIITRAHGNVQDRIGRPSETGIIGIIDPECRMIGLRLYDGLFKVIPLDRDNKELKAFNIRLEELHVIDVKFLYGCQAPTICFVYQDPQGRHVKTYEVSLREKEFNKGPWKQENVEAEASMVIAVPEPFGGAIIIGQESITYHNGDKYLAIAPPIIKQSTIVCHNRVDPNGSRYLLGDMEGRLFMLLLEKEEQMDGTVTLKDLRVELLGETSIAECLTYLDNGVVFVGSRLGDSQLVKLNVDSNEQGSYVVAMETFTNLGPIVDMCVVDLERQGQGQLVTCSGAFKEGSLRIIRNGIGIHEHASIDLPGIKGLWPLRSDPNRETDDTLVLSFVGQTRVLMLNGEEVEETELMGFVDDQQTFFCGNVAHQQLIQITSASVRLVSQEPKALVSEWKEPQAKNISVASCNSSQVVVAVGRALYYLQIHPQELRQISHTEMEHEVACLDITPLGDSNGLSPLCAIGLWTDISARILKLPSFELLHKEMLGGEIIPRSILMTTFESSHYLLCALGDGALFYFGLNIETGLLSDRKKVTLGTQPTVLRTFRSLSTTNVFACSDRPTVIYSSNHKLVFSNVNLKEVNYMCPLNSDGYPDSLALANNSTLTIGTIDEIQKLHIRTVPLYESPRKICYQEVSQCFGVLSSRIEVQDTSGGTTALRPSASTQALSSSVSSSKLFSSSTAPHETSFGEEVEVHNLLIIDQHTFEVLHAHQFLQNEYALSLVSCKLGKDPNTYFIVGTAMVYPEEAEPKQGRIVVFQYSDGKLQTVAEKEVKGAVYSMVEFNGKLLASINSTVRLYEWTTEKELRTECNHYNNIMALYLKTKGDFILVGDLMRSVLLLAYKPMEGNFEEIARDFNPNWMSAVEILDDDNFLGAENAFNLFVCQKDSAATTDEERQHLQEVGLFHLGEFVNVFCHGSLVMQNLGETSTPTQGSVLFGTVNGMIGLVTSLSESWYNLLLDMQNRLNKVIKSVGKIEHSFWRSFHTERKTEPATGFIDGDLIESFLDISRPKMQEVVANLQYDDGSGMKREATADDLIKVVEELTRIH
Description: (§1) RBM39-3xFLAG was immunopurified from HCT-116 cells expressing RBM39-3xFLAG (endogenous tag) using the cryomill procedure. DCAF15-3xFLAG was purified from 293T cells stably expressing DCAF15-3xFLAG through lentiviral transduction. […] Afterwards, beads were washed twice with 1×PBS, 0.1% NP40 and twice with 1×PBS. […] The tolbutamide internal standard (IS) was detected using the transition 269.1 to 169.9 (negative mode; M-H^−). […] The limit of quantitation (lowest quantifiable point on the standard curve with accuracy within 20% upon back calculation and at least 3-fold above background) for this method was 50 pg/ml.

DCAF15 and RBM39Δ150 [3] = target: T2, DCAF15 and RBM39Δ150 (Homo sapiens, UniProt Q14498+Q66K64); test: as above; type: binding; conditions: DCAF15 and wild type RBM39Δ150; 10 μM indisulam
T2 construct: Full-length cDNAs encoding CUL4A, CUL4B, DCAF15, and DDB1 were cloned into pLVX IRES Puro; made in house; host or cells: RBM39Δ150: Sf9 (baculovirus); DCAF15-3xFLAG: anti-FLAG beads from HCT-116 or 293T cells stably expressing it
T2 sequence (Q66K64 whole entry, stated change not applied): as the sequence (Q66K64 whole entry, stated change not applied) above
T2 sequence (Q14498 151-530, stated change not applied): as the sequence (Q14498 151-530 P272S, stated change not applied) above, with S122P counted along it
T2 sequence (Q16531 2-1140 partner): as the sequence (Q16531 2-1140 partner, stated change not applied) above
Description: as §1

DCAF15 and RBM39Δ150 [4] = test: as above; type: binding, human
Description: as §1

[5] = tested on: pre-mRNA splicing in HCT-116 cells harboring RBM39 G268V; test: RNA-seq analysis of splicing changes, RBM39 G268V; type: cell-based, human; conditions: 2 μM indisulam
Description: RNAs were extracted using Quick-RNA MiniPrep kit (Zymo Research). After cleaning up genomic DNA contaminant with Turbo DNase (Life Technologies) and rRNA depletion, strand-specific cDNA libraries were generated using the TruSeq Stranded mRNA Sample Prep Kit (IIlumina) and were subjected to high throughput sequencing using
HiSeq2500 platform (Illumina) with 100-bp single-end reads. NGS QC Toolkit (v2.3.1) (49) was used to check the sequencing quality, and high-quality reads were aligned by TopHat (v2.0.8) (50) to human reference genome (hg19) along with the gene annotation data downloaded from Illumina's iGenomes (support.illumina.com/sequencing/sequencing_software/igenome.ilmn). The insert-size metrics required in TopHat execution and the correctness of strand specificity were estimated by mapping reads to human transcript sequences using Bowtie (v2.1.0) (51) and Picard-tools (v1.99) (picard.sourceforge.net). The htseq-count script distributed with the HTSeq Python package (0.6.1) (pypi.python.org/pypi/HTSeq) was employed for counting reads in genes considering the coding strands. Source data for RNA sequencing data is available under NCBI SRA accession SRP096666.
For the stringent detection of differential skipped exons and retained introns, a custom program called SpliceFisher was developed and it is downloadable at github.com/jiwoongbio/SpliceFisher. […]

[6] = target: T3, RBM39-3xFLAG with DDA1, DDB1, CUL4A (Homo sapiens, UniProt Q14498+Q66K64); test: In vitro formation of RBM39-CUL4-DCAF15 complex in lysates; type: binding; conditions: indisulam dose-dependent manner
T3 construct: endogenous in cells; host or cells: HCT-116 RBM39-3xFLAG knock-in cells (treated cells in A90)
Experimental: First, we reconstituted formation of the RBM39-CUL4-DCAF15 complex in vitro (FIG. 4, panel A).
Anti-Flag M2 antibody (Sigma-Aldrich) was coupled to Dynabeads M-270 epoxy beads (Life Technologies) at the ratio of 10 μg of antibody/mg beads. […] Frozen cells were then pulverized in the a cryomill (Retsch) with one 25 mm steel ball and five cycles of three min at 25 Hz with intermittent cooling in liquid nitrogen. […] The lysates were centrifuged at 8000 g for 5 min at 4° C. 12 mg of conjugated Anti-Flag magnetic beads were mixed with clarified lysates for 5 min at 4° C. on a rotating platform, followed by three washes with IP buffer. Bound proteins were eluted with 1 mg/ml 3xFLAG peptide, followed by SDS-PAGE on a 10% Bis Tris gel. After brief electrophoresis, bands containing all the proteins were cut with clean blades. For western blotting of co-immunoprecipitated proteins, anti-DDA1 (ProteinTech, 14995-1-AP, 1:1000), anti-DDB1 (Abcam, ab109027, 1;10000), anti-CUL4A (Cell Signaling, 2699, 1:1000), anti-CUL4B (ProteinTech, 12916-1-AP, 1:1000) were used.

With NS(=O)(=O)c1ccc(S(=O)(=O)Nc2cccc3c(Cl)c[nH]c23)cc1 [Indisulam, indisulam] the IC50 ([1]; Homo sapiens, HCT-116) was 9.3 µM, the “sensitivity of indisulam resistant clones” value ([1]; five of six clones, concentrations as high as 50) was “insensitive” and the “times less sensitive than the parental HCT-116 cells” value ([1]; sixth indisulam resistant clone) was 17 times. The “amount of indisulam in complex (LC-MS)” value (DCAF15 and RBM39Δ150 [2]) was “lower levels of indisulam”, the “amount of indisulam in complex (LC-MS)” value (DCAF15 and RBM39Δ150 [3]) was “highest levels of indisulam” and the “amount of indisulam in complex (LC-MS)” value (DCAF15 and RBM39Δ150 [4]; DCAF15 and M265L or E271Q variants of RBM39Δ150) was “no indisulam was detected”. For the same compound, the “amount of indisulam (LC-MS)” value (DCAF15 and RBM39Δ150 [4]; either DCAF15 or RBM39 alone) was “no indisulam was identified”, the exon skipping events ([5]; HCT-116 RBM39 G268V) was 3 and the intron retention events ([5]; cells expressing the RBM39 G268V allele) was “no intron retention event”. The “co-purification of DDA1, DDB1, CUL4A with RBM39-3xFLAG in lysates” value [6] was “co-purified”.
